Measurements reported in PMC6723591, “Anti-Inflammatory Cembrane-Type Diterpenoids and Prostaglandins from Soft Coral Lobophytum sarcophytoides” (Marine Drugs, 2019).

System: LPS-activated NO production in RAW264.7 cells
Assay: Inhibition of LPS-activated NO production in RAW264.7 cells (Griess assay)
Type: cell-based
Details: Mus musculus, LPS-activated RAW264.7 cells
Experimental: All isolated compounds (except for 14 with limited amount) were tested for their inhibition activity against LPS-activated NO production in RAW264.7 cells using the Griess assay. […] The structure of PGA2 made a more positive contribution to the anti-inflammatory activity than those of PGB2 (16 vs. 15).
The anti-inflammation activity of the isolated compounds was evaluated according to the reported procedures.

| SMILES | IC50 [µM] |
| --- | --- |
| CCCCCC(O)CCC1=C(CC=CCCCC(=O)OC)C(=O)CC1 (stereo not drawn) [Compound 13, 13,14-dihydro-PGB2-Me] | 16.1 |
| CCCCC[C@H](O)/C=C/[C@H]1C=CC(=O)[C@@H]1C/C=C\CCCC(=O)O [Compound 16, PGA2] | 7.1 |
| CCCCCC(O)CCC1=C(CC=CCCCC(=O)O)C(=O)CC1 (stereo not drawn) [Compound 12, 13,14-dihydro-PGB2] | 24.8 |
| C=C1CC[C@@H](C(C)C)/C=C/[C@@](C)(O)C/C=C/[C@](C)(O)CC[C@@H]1O [Compound 7, (1S,2E,4S,6E,8S,11R)-2,6,12(20)-cembratriene-4,8,11-triol] | 17.6 |
| COc1ccc2c(c1)c(CC(=O)O)c(C)n2C(=O)c1ccc(Cl)cc1 [indomethacin, reference compound] | 39.8 |
| CCCCC[C@H](O)/C=C/C1=C(C/C=C\CCCC(=O)O)C(=O)CC1 [Compound 15, PGB2] | 15.9 |
| CC(=O)C=C=C1C(C)(C)C[C@H](OC(C)=O)C[C@@]1(C)O [Compound 9, apo-9′-fucoxanthinone] | 32.1 |
| CCCCCC(O)C=CC1=C(CC=CCCCC(=O)O)C(=O)CC1 (stereo not drawn) [Compound 10, (5E)-PGB2] | 20.4 |
| CC1=CC2OCC(C)=C2CCC2(C)OC2CCC(C)(O)C=CC1 (stereo not drawn) [Compound 6] | 26.7 |
